Laboratory results from US12006278B1, “4,4′-naphthalene-1,5-diylbis(diazene-2,1-diyl)diphenol as an antioxidant compound” (KING FAISAL UNIVERSITY, priority 2023, dated 2024).

Assay: DPPH radical scavenging antioxidant test
Settings: 517 nm; for Inhibition (radical scavenging inhibition): compound 3 μM in ethanol + 0.2 mL DPPH (0.75 mM), 30 min incubation in the dark
Procedure: The antioxidant properties of the 4,4′-naphthalene-1,5-diylbis(diazene-2,1-diyl)diphenol were studied by adding 0.2 mL DPPH (0.75 mM)) to compound 4,4′-naphthalene-1,5-diylbis(diazene-2,1-diyl)diphenol (III) (3 μM) in ethanol. After 30 min of incubation in the dark, the absorbance was read against a blank at 517 nm. Ascorbic acid (vitamin C) was used as standard antioxidants (positive control). A blank sample was prepared by 0.2 ml of DPPH in 3 ml ethanol. A negative control sample was run using ethanol instead of the sample. The radical scavenging inhibition was calculated using the following equation: […]

| SMILES | antioxidant potential compared to vitamin C (result in words) (DPPH in vitro test, vitamin C as positive control) | Inhibition (radical scavenging inhibition) [%] |
| --- | --- | --- |
| Oc1ccc(/N=N\c2cccc3c(/N=N/c4ccc(O)cc4)cccc23)cc1 [Product III, 4,4′-naphthalene-1,5-diylbis(diazene-2,1-diyl)diphenol] | high potential as an antioxidant | 54 |
| O=C1O[C@H]([C@@H](O)CO)C(O)=C1O [vit c, Ascorbic acid, reference compound] | – | 74 |
